Experiments:
in vitro [1] = conditions: mouse, liver microsomes
in vitro [2] = conditions: mouse, liver microsomes; remark: listed apart in the source
hERG [3] = target: T1, hERG (Homo sapiens, UniProt Q12809); assay: in vitro; conditions: HEK
hALOX12B = target: T2, hALOX12B (Homo sapiens, UniProt O75342); assay: biochemical; conditions: read-out: % inhibition of ALOX12B enzyme activity
T2 sequence (O75342 1-701): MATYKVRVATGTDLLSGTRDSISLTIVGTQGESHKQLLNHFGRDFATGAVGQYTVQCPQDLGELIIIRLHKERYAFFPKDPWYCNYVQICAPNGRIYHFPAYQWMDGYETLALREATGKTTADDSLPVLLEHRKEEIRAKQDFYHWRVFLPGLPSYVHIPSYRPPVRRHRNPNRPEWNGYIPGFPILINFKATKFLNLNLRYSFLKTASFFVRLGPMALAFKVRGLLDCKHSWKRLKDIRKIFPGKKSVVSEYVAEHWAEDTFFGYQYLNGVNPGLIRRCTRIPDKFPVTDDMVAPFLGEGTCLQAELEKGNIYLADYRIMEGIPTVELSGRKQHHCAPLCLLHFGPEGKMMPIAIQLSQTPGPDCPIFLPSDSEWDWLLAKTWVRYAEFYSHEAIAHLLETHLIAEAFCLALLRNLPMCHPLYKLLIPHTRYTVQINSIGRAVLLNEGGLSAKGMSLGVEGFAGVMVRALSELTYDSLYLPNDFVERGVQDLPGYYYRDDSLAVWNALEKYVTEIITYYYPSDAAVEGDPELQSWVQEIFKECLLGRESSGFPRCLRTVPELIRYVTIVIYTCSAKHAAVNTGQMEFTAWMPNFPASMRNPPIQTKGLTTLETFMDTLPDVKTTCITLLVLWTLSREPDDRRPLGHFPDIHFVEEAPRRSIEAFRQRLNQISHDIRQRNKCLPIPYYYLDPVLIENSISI

hERG [4] = target: T1, hERG; assay: in vitro; conditions: HEK; remark: listed apart in the source
hERG [5] = target: T1, hERG; assay: whole-cell patch clamp, IKr current; type: cell-based; conditions: test concentrations 0.3 to 30 µM; HEK cells stably transfected

T1 sequence (Q12809 whole entry): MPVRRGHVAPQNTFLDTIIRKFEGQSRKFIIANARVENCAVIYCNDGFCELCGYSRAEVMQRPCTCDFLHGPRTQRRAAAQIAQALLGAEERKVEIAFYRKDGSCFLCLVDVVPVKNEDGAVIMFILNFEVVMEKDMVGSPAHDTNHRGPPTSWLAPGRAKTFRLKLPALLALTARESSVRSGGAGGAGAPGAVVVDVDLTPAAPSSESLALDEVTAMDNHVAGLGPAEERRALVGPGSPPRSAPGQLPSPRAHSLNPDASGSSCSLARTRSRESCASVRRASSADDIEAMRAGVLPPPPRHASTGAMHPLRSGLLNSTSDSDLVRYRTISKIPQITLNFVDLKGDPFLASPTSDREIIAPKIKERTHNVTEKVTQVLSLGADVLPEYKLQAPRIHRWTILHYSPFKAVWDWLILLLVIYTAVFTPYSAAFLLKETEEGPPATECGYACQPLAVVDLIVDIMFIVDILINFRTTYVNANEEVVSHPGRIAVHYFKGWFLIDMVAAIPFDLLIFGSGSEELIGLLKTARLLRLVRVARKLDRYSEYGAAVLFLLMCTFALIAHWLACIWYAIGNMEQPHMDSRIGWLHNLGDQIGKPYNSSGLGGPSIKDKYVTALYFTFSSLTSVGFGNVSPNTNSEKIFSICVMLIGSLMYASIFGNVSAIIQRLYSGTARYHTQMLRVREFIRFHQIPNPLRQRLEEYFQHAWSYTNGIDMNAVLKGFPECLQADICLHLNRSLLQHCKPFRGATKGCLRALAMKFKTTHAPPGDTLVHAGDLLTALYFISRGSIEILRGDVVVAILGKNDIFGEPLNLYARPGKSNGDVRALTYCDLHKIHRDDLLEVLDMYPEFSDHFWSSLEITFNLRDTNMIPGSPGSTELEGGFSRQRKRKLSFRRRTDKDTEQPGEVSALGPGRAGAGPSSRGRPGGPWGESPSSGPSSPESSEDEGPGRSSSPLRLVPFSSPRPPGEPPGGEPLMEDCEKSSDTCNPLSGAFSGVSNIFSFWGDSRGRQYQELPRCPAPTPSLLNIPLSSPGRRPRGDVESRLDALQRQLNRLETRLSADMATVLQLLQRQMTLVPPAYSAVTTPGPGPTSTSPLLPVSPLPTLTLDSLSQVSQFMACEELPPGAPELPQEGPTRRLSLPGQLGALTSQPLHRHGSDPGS

| SMILES | half-life at 5 µM (in vitro [1]) [h] | microsomal CLint at 5 µM (in vitro [2]) [µL/min/mg] | inhibition at 0.1 µM (hERG [3]) [%] | inhibition at 10 µM (hALOX12B) [%] | inhibition at 100 µM (hALOX12B) [%] | inhibition at 200 µM (hALOX12B) [%] | inhibition at 0.3 µM (hERG [4]) [%] | inhibition at 1 µM (hERG [4]) [%] | inhibition at 3 µM (hERG [4]) [%] | inhibition at 10 µM (hERG [4]) [%] | inhibition at 30 µM (hERG [4]) [%] | % reduction of hERG current at 0.3 to 30 μM (hERG [5]) |
| --- | --- | --- | --- | --- | --- | --- | --- | --- | --- | --- | --- | --- |
| Nc1ccc(O)cc1-c1cc(=O)c2ccccc2o1 [6a, 2-(2-amino-5-hydroxyphenyl)-4H-chromen-4-one] | 8.25 | 5.6 | -8.53 | ~23 | ~40 | ~52 | 13.3 | 14.1 | 10.6 | 10.9 | 9.05 |  |
| Nc1ccc(O)cc1-c1cc(=O)c2ccccc2o1 [6a] |  |  |  |  |  |  |  |  |  |  |  | 9-14% |

Reference: article doi:10.1101/2025.06.09.658245v1 (biorxiv, 2025)
